Common to all, as to assay type: functional
Test [1] deals with Citrobacter werkmanii. Description: Antimicrobial activity against Citrobacter werkmanii isolate CIT3 harboring parC Leu88Gln mutant gene and qnrB12 gene by broth macrodilution method in presence of 64 ug/ml Phe-Arg-beta-naphthylamide.
Test [2] deals with Citrobacter werkmanii. Kind of test: Antimicrobial activity against Citrobacter werkmanii isolate CIT2 harboring qnrB12 gene by broth macrodilution method in presence of 64 ug/ml Phe-Arg-beta-naphthylamide.
The test system of test [3] is Escherichia coli. Kind of test: Antimicrobial activity against Escherichia coli TOP10 harboring pCR-Blunt2-TOPO carrying qnrB12 gene of Citrobacter werkmanii isolate CIT1 by broth macrodilution method.
Test [4] concerns Citrobacter werkmanii. Kind of test: Antimicrobial activity against Citrobacter werkmanii isolate CIT3 harboring parC Leu88Gln mutant and qnrB12 gene by broth macrodilution method.
Test [5] concerns Escherichia coli. Description: Antimicrobial activity against Escherichia coli TOP10 harboring pCR-Blunt2-TOPO carrying qnrB12 gene of Citrobacter werkmanii isolate CIT3 by broth macrodilution method in presence of 64 ug/ml Phe-Arg-beta-naphthylamide.
For test [6], the system named is Escherichia coli. Description: Antimicrobial activity against Escherichia coli TOP10 harboring pCR-Blunt2-TOPO carrying qnrB12 gene of Citrobacter werkmanii isolate CIT2 by broth macrodilution method in presence of 64 ug/ml Phe-Arg-beta-naphthylamide.
For test [7], the system named is Escherichia coli. Kind of test: Antimicrobial activity against Escherichia coli TOP10 by broth macrodilution method in presence of 64 ug/ml Phe-Arg-beta-naphthylamide.
The test system of test [8] is Escherichia coli. Description: Antimicrobial activity against Escherichia coli TOP10 by broth macrodilution method.
For test [9], the system named is Escherichia coli. Kind of test: Antimicrobial activity against Escherichia coli TOP10 harboring empty vector pCR-Blunt2-TOPO by broth macrodilution method.
The test system of test [10] is Citrobacter werkmanii. Kind of test: Antimicrobial activity against Citrobacter werkmanii isolate CIT2 harboring qnrB12 gene by broth macrodilution method.
The test system of test [11] is Citrobacter werkmanii. Kind of test: Antimicrobial activity against nalidixic acid-resistant Citrobacter werkmanii isolate CIT1 harboring gyrA Thr83Ile, parC Ser57Thr mutant gene and qnrB12 gene by broth macrodilution method in presence of 64 ug/ml Phe-Arg-beta-naphthylamide.
Test [12] has as its system Escherichia coli. Description: Antimicrobial activity against Escherichia coli TOP10 harboring pCR-Blunt2-TOPO carrying qnrB12 gene of Citrobacter werkmanii isolate CIT3 by broth macrodilution method.
Test [13] has as its system Escherichia coli. Description: Antimicrobial activity against Escherichia coli TOP10 harboring pCR-Blunt2-TOPO carrying qnrB12 gene of Citrobacter werkmanii isolate CIT1 by broth macrodilution method in presence of 64 ug/ml Phe-Arg-beta-naphthylamide.
Test [14] has as its system Escherichia coli. Description: Antimicrobial activity against Escherichia coli TOP10 harboring pCR-Blunt2-TOPO carrying qnrB12 gene of Citrobacter werkmanii isolate CIT2 by broth macrodilution method.
Test [15] has as its system Citrobacter werkmanii. Kind of test: Antimicrobial activity against nalidixic acid-resistant Citrobacter werkmanii isolate CIT1 harboring gyrA Thr83Ile, parC Ser57Thr mutant gene and qnrB12 gene by broth macrodilution method.
The test system of test [16] is Escherichia coli. Kind of test: Antimicrobial activity against Escherichia coli TOP10 harboring empty vector pCR-Blunt2-TOPO by broth macrodilution method in presence of 64 ug/ml Phe-Arg-beta-naphthylamide.

Converted amounts (≈) assume the structure as drawn. Residues, ends and D or L forms follow the SMILES beside them. *: point of attachment. βNA = c1ccc2cc(N*)ccc2c1

`O=C(O)c1cn(C2CC2)c2cc(N3CCNCC3)c(F)cc2c1=O` [CIPROFLOXACIN]: the MIC was found to be 0.0312 µg/mL in the test on Citrobacter werkmanii [1]; 0.0312 µg/mL with Citrobacter werkmanii [2]; 0.0625 µg/mL (≈ 0.189 µM) in the test with Escherichia coli [3]; 0.0625 µg/mL (≈ 0.189 µM) in the test with Citrobacter werkmanii [4]; 0.0625 µg/mL in the test on Escherichia coli [5]; 0.0625 µg/mL in the test with Escherichia coli [6]. The MIC is 0.00195 µg/mL in the test with Escherichia coli [7]; 0.00195 µg/mL (≈ 0.00589 µM) against Escherichia coli [8]; 0.00195 µg/mL (≈ 0.00589 µM) in the test on Escherichia coli [9]; 0.5 µg/mL (≈ 1.51 µM) against Citrobacter werkmanii [10]; 0.25 µg/mL in the test on Citrobacter werkmanii [11]; 0.0625 µg/mL (≈ 0.189 µM) against Escherichia coli [12]. Further, the MIC in the test with Escherichia coli [13] is 0.0625 µg/mL; in the test with Escherichia coli [14], 0.0625 µg/mL (≈ 0.189 µM); against Citrobacter werkmanii [15], 1 µg/mL (≈ 3.02 µM); in the test with Escherichia coli [16] it was 0.00195 µg/mL.

Take `CCn1cc(C(=O)O)c(=O)c2ccc(C)nc21` [NALIDIXIC ACID]: the MIC with Citrobacter werkmanii [1] came out at 0.25 µg/mL; with Citrobacter werkmanii [2], 0.5 µg/mL; in the test on Escherichia coli [3], 8 µg/mL (≈ 34.4 µM); against Citrobacter werkmanii [4] it was 8 µg/mL (≈ 34.4 µM); in the test with Escherichia coli [5], 1 µg/mL; in the test with Escherichia coli [6] it was 1 µg/mL. The MIC in the test with Escherichia coli [7] came out at 0.25 µg/mL; against Escherichia coli [8], 2 µg/mL (≈ 8.61 µM); against Escherichia coli [9], 2 µg/mL (≈ 8.61 µM); with Citrobacter werkmanii [10] it was 8 µg/mL (≈ 34.4 µM); in the test with Citrobacter werkmanii [11] it was 16 µg/mL; with Escherichia coli [12], 8 µg/mL (≈ 34.4 µM). Further, the MIC in the test on Escherichia coli [13] is 1 µg/mL; in the test with Escherichia coli [14] it was 8 µg/mL (≈ 34.4 µM); against Citrobacter werkmanii [15], greater than 256 µg/mL; in the test with Escherichia coli [16], 0.25 µg/mL.

On to `N=C(N)NCCC[C@H](NC(=O)[C@@H](N)Cc1ccccc1)C(=O)Nc1ccc2ccccc2c1` [PABETAN] (H-Phe-Arg-βNA), for which the MIC was greater than 256 µg/mL with Escherichia coli [3]; 256 µg/mL (≈ 573 µM) in the test with Citrobacter werkmanii [4]; greater than 256 µg/mL in the test with Escherichia coli [8]; greater than 256 µg/mL in the test on Escherichia coli [9]; 256 µg/mL (≈ 573 µM) in the test on Citrobacter werkmanii [10]; greater than 256 µg/mL in the test with Escherichia coli [12]. For the same molecule, the MIC in the test with Escherichia coli [14] and in the test on Citrobacter werkmanii [15] was greater than 256 µg/mL throughout.
